From paper PMC7669905, “A cellulose synthase-derived enzyme catalyses 3-O-glucuronosylation in saponin biosynthesis” (Nature Communications, 2020)

Columns and labels:
Assay type in all cases: cell-based
GmCSyGT3 = target: T1, GmCSyGT3 (Glycine max, UniProt A0A7I6P8J7); experiment: yeast feeding assay, LC-MS of monoglucuronide; conditions: 10 µM substrate fed to yeast with co-expressed UGD
T1 construct: full-length cDNA, membrane protein, expressed in S. cerevisiae with A. thaliana UGD
T1 sequence (A0A7I6P8J7 1-696): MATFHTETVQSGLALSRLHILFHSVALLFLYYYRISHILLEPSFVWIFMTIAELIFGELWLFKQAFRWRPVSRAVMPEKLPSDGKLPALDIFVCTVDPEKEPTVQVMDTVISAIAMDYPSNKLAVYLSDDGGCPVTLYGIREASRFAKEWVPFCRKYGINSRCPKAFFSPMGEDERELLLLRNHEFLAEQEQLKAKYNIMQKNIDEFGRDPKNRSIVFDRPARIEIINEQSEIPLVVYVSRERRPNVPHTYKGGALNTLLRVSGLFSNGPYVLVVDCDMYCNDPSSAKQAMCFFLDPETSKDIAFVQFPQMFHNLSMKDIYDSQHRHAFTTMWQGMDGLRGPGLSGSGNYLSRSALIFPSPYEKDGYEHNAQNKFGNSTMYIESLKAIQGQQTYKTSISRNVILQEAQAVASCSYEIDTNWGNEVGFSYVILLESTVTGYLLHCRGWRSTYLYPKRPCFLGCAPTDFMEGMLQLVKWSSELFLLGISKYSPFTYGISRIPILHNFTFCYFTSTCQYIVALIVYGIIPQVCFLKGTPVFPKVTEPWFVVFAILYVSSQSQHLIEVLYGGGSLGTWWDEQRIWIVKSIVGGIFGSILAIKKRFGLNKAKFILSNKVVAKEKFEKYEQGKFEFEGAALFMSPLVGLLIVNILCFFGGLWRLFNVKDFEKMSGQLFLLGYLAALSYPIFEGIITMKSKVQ

LjCSyGT = target: T2, LjCSyGT (Lotus japonicus, UniProt A0A7I6P8A1); experiment: in vivo yeast assay, LC-MS of monoglucuronide; conditions: yeast strain with co-expressed UGD; endogenous UDP-glucuronic acid; 30 °C, 5 days
T2 construct: cDNA clone, ER membrane protein, expressed in S. cerevisiae with A. thaliana UGD
T2 sequence (A0A7I6P8A1 1-694): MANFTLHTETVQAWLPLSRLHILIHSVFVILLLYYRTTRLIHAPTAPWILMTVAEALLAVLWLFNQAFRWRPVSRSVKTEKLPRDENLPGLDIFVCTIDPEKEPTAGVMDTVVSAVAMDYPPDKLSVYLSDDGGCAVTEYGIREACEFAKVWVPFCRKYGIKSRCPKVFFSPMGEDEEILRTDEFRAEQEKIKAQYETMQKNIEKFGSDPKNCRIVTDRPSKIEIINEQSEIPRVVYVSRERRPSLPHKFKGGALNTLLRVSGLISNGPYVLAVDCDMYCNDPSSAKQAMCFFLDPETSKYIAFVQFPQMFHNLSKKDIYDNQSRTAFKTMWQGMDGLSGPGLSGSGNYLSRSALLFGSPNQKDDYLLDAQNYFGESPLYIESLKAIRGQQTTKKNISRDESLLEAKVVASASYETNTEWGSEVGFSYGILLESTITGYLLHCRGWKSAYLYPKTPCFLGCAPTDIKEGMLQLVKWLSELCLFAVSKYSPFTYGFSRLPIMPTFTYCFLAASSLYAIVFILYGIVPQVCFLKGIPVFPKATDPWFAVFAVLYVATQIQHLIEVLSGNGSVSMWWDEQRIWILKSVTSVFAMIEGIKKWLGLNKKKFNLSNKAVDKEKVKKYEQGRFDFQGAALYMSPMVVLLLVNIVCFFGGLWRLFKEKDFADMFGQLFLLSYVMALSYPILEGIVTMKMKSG

GmCSyGT1 = target: T3, GmCSyGT1 (Glycine max, UniProt A0A7I6PD81); experiment: in vivo yeast assay, LC-MS of monoglucuronide; conditions: yeast strain with co-expressed UGD; endogenous UDP-glucuronic acid; 30 °C, 5 days
T3 construct: full-length cDNA, membrane protein, expressed in S. cerevisiae with A. thaliana UGD
T3 sequence (A0A7I6PD81 1-699): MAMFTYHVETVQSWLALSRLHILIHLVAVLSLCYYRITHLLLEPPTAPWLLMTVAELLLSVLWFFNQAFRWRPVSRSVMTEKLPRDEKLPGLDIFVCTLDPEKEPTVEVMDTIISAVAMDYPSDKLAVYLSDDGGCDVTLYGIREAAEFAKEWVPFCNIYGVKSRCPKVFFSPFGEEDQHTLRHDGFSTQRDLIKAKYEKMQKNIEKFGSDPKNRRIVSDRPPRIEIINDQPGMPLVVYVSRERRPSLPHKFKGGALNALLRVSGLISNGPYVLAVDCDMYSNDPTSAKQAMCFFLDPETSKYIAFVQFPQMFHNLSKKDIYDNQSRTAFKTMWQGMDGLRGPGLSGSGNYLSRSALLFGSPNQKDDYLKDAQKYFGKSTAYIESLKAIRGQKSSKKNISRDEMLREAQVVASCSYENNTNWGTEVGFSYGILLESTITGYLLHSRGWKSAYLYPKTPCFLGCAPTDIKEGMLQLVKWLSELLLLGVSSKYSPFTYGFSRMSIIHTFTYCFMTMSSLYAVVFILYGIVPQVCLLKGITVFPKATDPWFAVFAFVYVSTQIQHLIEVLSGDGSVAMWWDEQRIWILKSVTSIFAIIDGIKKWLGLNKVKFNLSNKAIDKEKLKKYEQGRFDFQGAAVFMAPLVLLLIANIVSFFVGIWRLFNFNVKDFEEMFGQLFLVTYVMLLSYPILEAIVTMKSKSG

GuCSyGT [1] = target: T4, GuCSyGT (Glycyrrhiza uralensis, UniProt A0A7I6P8N6); experiment: in vivo yeast assay, LC-MS of monoglucuronide; conditions: yeast strain with co-expressed UGD; endogenous UDP-glucuronic acid; 30 °C, 5 days
T4 construct: full-length cDNA, ER membrane protein, expressed in S. cerevisiae with A. thaliana UGD
T4 sequence (A0A7I6P8N6 1-695): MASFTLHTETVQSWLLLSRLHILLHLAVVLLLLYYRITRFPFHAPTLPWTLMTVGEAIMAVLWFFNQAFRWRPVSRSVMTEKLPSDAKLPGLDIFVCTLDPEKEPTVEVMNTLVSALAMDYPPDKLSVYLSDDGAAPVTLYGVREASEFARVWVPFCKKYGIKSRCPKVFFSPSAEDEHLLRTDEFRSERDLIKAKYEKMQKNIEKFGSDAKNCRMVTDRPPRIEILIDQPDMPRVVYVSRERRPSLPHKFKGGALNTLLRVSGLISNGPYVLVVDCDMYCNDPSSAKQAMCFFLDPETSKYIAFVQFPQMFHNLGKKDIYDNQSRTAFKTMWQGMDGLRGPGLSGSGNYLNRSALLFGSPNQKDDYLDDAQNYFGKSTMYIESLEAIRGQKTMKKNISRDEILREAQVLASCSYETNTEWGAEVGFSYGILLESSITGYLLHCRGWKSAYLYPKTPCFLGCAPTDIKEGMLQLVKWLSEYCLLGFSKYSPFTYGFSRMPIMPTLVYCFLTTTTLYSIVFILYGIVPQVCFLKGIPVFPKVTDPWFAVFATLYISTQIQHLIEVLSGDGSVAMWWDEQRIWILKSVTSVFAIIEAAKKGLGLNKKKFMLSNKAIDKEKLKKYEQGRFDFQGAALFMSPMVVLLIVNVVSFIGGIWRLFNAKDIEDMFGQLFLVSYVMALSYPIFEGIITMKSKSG

GuUGT73F13 = target: T5, GuUGT73F13 (Glycyrrhiza uralensis, UniProt A0A6S4QPQ3); experiment: in vivo yeast assay, LC-MS of 3-O-monoglucoside; conditions: glycyrrhetinic acid-producing yeast strain with UGD; donor endogenous UDP-glucose
T5 construct: gene UGT73F13; cDNA clone expressed in S. cerevisiae with A. thaliana UGD
T5 sequence (A0A6S4QPQ3 1-477): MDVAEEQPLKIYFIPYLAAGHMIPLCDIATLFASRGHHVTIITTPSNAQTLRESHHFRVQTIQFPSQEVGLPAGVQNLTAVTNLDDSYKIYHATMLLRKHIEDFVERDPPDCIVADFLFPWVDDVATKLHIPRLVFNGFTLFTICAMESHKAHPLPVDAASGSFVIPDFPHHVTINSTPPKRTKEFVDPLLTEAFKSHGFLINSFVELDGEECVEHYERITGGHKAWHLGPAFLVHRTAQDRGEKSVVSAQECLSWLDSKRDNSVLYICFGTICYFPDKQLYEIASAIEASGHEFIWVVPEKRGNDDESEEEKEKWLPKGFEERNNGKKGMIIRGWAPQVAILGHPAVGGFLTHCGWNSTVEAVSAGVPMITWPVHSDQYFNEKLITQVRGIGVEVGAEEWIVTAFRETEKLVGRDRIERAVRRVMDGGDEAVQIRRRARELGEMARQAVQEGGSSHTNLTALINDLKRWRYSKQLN

GuCSyGT [2] = target: T4, GuCSyGT; experiment: in vivo yeast assay, LC-MS of products with and without UGD; conditions: sugar donor; acceptor glycyrrhetinic acid
UGT73P12 = target: T6, UGT73P12 (Glycyrrhiza uralensis, UniProt A0A5A4WN00); experiment: de novo pathway in yeast, LC-MS of glycyrrhizin; conditions: donor endogenous UDP-glucuronic acid (UGD); acceptor made in situ by CSyGT
T6 construct: expressed in S. cerevisiae in the reconstructed glycyrrhizin pathway (strain GL)
T6 sequence (A0A5A4WN00 1-506): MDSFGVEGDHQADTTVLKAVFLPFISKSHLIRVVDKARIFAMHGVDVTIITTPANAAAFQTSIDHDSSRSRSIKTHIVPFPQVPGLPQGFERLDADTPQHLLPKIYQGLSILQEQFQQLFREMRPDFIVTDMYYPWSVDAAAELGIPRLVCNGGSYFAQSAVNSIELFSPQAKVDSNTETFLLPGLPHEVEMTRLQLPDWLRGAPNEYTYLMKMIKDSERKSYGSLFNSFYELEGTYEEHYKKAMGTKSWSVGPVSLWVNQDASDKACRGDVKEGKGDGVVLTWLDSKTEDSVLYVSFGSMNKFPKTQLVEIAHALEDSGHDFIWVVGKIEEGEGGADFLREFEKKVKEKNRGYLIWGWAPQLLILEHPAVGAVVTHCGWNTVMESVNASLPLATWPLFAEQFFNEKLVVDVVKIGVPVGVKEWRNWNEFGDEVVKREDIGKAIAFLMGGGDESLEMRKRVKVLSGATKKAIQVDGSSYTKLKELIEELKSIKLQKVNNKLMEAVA

C=C(C)[C@@H]1CC[C@]2(C(=O)O)CC[C@]3(C)[C@H](CC[C@@H]4[C@@]5(C)CC[C@H](O)C(C)(C)[C@@H]5CC[C@]43C)[C@@H]12 [betulinic acid]
yeast feeding assay, LC-MS of monoglucuronide (GmCSyGT3): GmCSyGT3 showed catalytic activity against the triterpenoid aglycones, ursolic acid and betulinic acid

CC1(C)C[C@@H](O)[C@]2(C)CC[C@]3(C)C(=CC[C@@H]4[C@@]5(C)CC[C@H](O)[C@](C)(CO)[C@@H]5CC[C@]43C)[C@@H]2C1 [soyasapogenol B]
in vivo yeast assay, LC-MS of monoglucuronide (LjCSyGT): all three had similar levels of catalytic activity for soyasapogenol B | in vivo yeast assay, LC-MS of monoglucuronide (GmCSyGT1): all three had similar levels of catalytic activity for soyasapogenol B

CC1(C)[C@@H](O)CC[C@]2(C)[C@H]3C(=O)C=C4[C@@H]5C[C@@](C)(C(=O)O)CC[C@]5(C)CC[C@@]4(C)[C@]3(C)CC[C@@H]12 [GA, glycyrrhetinic acid]
in vivo yeast assay, LC-MS of monoglucuronide (GuCSyGT [1]): All of the CSyGT-expressing strains produced the corresponding monoglucuronides | in vivo yeast assay, LC-MS of monoglucuronide (LjCSyGT): The low catalytic activity of LjCSyGT for glycyrrhetinic and oleanolic acids | in vivo yeast assay, LC-MS of monoglucuronide (GmCSyGT1): All of the CSyGT-expressing strains produced the corresponding monoglucuronides | in vivo yeast assay, LC-MS of 3-O-monoglucoside (GuUGT73F13): GuUGT73F13, which catalyses 3-O-glucosylation of glycyrrhetinic acid

O=C(O)[C@H]1O[C@H](OP(=O)(O)OP(=O)(O)OC[C@H]2O[C@@H](n3ccc(=O)[nH]c3=O)[C@H](O)[C@@H]2O)[C@H](O)[C@@H](O)[C@@H]1O [UDP-glucuronic acid]
in vivo yeast assay, LC-MS of products with and without UGD (GuCSyGT [2]): GuCSyGT preferentially selects UDP-glucuronic acid as the sugar donor

CC1(C)[C@@H](O[C@@H]2O[C@H](C(=O)O)[C@@H](O)[C@H](O)[C@H]2O)CC[C@]2(C)[C@H]3C(=O)C=C4[C@@H]5C[C@@](C)(C(=O)O)CC[C@]5(C)CC[C@@]4(C)[C@]3(C)CC[C@@H]12 [GA–GlcA, glycyrrhetinic acid-3-O-monoglucuronide]
de novo pathway in yeast, LC-MS of glycyrrhizin (UGT73P12): Since the product is quickly converted into glycyrrhizin in GL strains

C[C@H]1[C@H](C)CC[C@]2(C(=O)O)CC[C@]3(C)C(=CC[C@@H]4[C@@]5(C)CC[C@H](O)C(C)(C)[C@@H]5CC[C@]43C)[C@H]12 [ursolic acid]
yeast feeding assay, LC-MS of monoglucuronide (GmCSyGT3): GmCSyGT3 showed catalytic activity against the triterpenoid aglycones, ursolic acid and betulinic acid
